Structures are written as SMILES. Read-outs that look alike come from different tables or passages of the source. A value given as a limit tells only on which side of the number the result lay.

For data set [1], the system named is Escherichia coli ribosomes. Set-up: method as in earlier work. Particulars: equilibrium dialysis, cited from earlier work. (In general: In equilibrium dialysis only unbound substance equilibrates across the membrane.)
Data set [2] concerns post-translocation ribosomal complex (complex C) derived from E. coli. Details: method as in Xaplanteri et al., [6]. The following applies: ref Xaplanteri et al., [6], cited from earlier work.
In a further data set the test system is P. aeruginosa (GRE5288). Nature of the data set: Antibacterial activity (growth inhibition, EC50). The format is cell-based, Pseudomonas aeruginosa. The following applies: for EC50: Pseudomonas aeruginosa. An excerpt:
(§1) A.S. Mankin (University of Illinois). E. coli ΔtolC strain BL21 DE3 with impaired AcrAB-TolC, a proton-dependent MDR efflux pump causing multidrug resistance, was offered by Dr D.N. Wilson (University of Munich) and included in our study to test if this mechanism of resistance affects the efficacy of CAM dimers. […] I. Spiliopoulou (National Reference Laboratory for Staphylococci, School of Medicine, University of Patras, Greece). Finally, E. coli strain Rosetta(DE3)pLysS, containing a chloramphenicol resistant gene in the pLysS plasmid, was purchased from Novagen and was also included in our study. Briefly, S. aureus or E. coli cells (200 μl of a 0.700 OD560 preculture) containing wild-type or mutant ribosomes were added in 3.8 ml of LB (Luria-Bertani) medium and grown at 37°C in the presence or absence of CAM or CAM dimers until the optical density of the control culture (grown in the absence of drug) reached the value 0.700 at 560 nm. For E. faecium and P. aeruginosa cultures, TSB (Tryptic Soy Broth) medium was used, instead of LB medium, in order to achieve exponential doubling times between 25 and 35 minutes. From dose-response curves, the half-maximal effective concentration (EC50) for each compound and strain was estimated. EC50 represents the molar concentration of a compound that produces 50% of the maximal possible effect. The EC50 values were mathematically determined by non linear regression fitting of the observed culture optical-density values, expressed as the percentage of 0.700 (y), into Hill Equation, y=min+max−min/1+(x/EC50)^−n where min and max are the lowest and highest observed values of the culture optical density, respectively, x the concentration of the tested compound, and n the Hill coefficient that represents the largest absolute value of the curve slope. EC50 is equal to the x- value of the sigmoid’s midpoint. Fitting was performed using the Four Parameter Logistic Curve of the SigmaPlot Program Version 11.0 (Systat Software, Inc) for Exact Graphs and Data Analysis.

Another data set deals with Jurkat cells. Nature of the data set: Toxicity assays in Jurkat cells (cell counting, necrosis and apoptosis by flow cytometry). Type of data set: cell-based, Human. The following applies: 60 μM; flow cytometry. As to the method:
Fig 8 Toxicity assays in Jurkat cells. Jurkat cells were adjusted to 1×10^9 cells/L in RPMI-1640 medium containing 1% Penicillin/Streptomycin and 10% fetal bovine serum. The cells were grown in triplicate in the presence or absence of compound 5 at the indicated concentrations for 4 days at 37°C, under a humidified 5% CO2 atmosphere. CAM was used as a reference compound. For cell necrosis and apoptosis assays, samples (10^6 cells) were collected daily and determined by flow cytometry. Apoptotic and necrotic cells were expressed as a percentage of total cells.
Human leukemic cell lines, HS-Sultan (Burkitt’s lymphoma), Jurkat (T-cell acute lymphoblastic leukemia), and U937 (histiocytic lymphoma), were adjusted to 1×10^9 cells/l in RPMI-1640 medium supplemented with 10% fetal bovine serum and 1% penicillin/streptomycin. The cells were grown in triplicate in the absence (control cultures) or presence of CAM or CAM dimers for 4 days at 37°C, under a humidified 5% CO2 atmosphere. The medium was changed daily; CAM or CAM dimer addition was repeated after medium change. Aliquots were collected daily and counted in a CELL-DYN 3700 Hematology Analyzer. For cell necrosis and apoptosis assays, samples (10^6 cells) were collected and determined using the Annexin V-PE Apoptosis Detection Kit I (BD Pharmingen) for flow cytometry, according to the manufacturers’ instructions. Flow cytometry data were analyzed using the FlowJo flow cytometry analysis software. Necrotic and apoptotic cells were expressed as a percentage of total cells.
(In general: In flow cytometry, cells or beads pass a laser one at a time.)

The subject of a further data set is E. coli (ΔtolC). Kind of data set: Antibacterial activity (growth inhibition, EC50). Type of data set: cell-based, Escherichia coli. The following applies: for EC50: Escherichia coli, BL21-DE3.
Excerpt: as §1

Another data set relates to E. coli (A2503C). Nature of the data set: Antibacterial activity (growth inhibition, EC50). Type of data set: cell-based, Escherichia coli. The following applies: Escherichia coli.
Excerpt: as §1

For another data set, the system named is E. coli (A2058G). Kind of data set: Antibacterial activity (growth inhibition, EC50). Type of data set: cell-based, Escherichia coli. The following applies: Escherichia coli.
Excerpt: as §1

The test system of data set [3] is E. coli Rosetta(DE3)pLysS. Kind of data set: Antibacterial activity (growth inhibition, EC50). The format is cell-based, Escherichia coli. Particulars: Escherichia coli.
Excerpt: as §1

A further data set relates to E. coli (WT). Nature of the data set: Antibacterial activity (growth inhibition, EC50). Type of data set: cell-based, Escherichia coli. The following applies: for EC50: Escherichia coli, LB medium, 37°C, OD560.
Excerpt: as §1

The target of the next data set is ribosome. Details: method as in PMID 14654696. Particulars: read-out: K i, cryptic low-affinity site (entrance to the exit tunnel); cited from earlier work.
The test system of the next data set is S. aureus (WT). Kind of data set: Antibacterial activity (growth inhibition, EC50). Type of data set: cell-based. Particulars: Staphylococcus aureus.
Excerpt: as §1

Another data set relates to MRSA (GRE2691). Nature of the data set: Antibacterial activity (growth inhibition, EC50). Type of data set: cell-based. Particulars: Staphylococcus aureus.
Excerpt: as §1

For the next data set, the system named is E. faecium (GRE5152). Nature of the data set: Antibacterial activity (growth inhibition, EC50). The format is cell-based. The following applies: Enterococcus faecium.
Excerpt: as §1

The test system of a further data set is MRSA (GRE2272). Nature of the data set: Antibacterial activity (growth inhibition, EC50). Type of data set: cell-based. The following applies: Staphylococcus aureus.
Excerpt: as §1

Data set [4] concerns post-translocation ribosomal complex (complex C) derived from E. coli. Kind of data set: Inhibition of peptide-bond formation (puromycin reaction, AcPhe-puromycin synthesis). Particulars: ranking by K i*. The format is biochemical. As to the method:
The inhibitory effect of CAM dimers on peptide-bond formation was studied using the puromycin reaction, a model reaction between puromycin and a post-translocation ribosomal complex (complex C) derived from E. coli. Since puromycin, a pseudo-substrate of PTase which binds to the A-site of the catalytic center, was present in excess, the reaction obeyed first-order kinetics. The first-order rate constant, k obs, at each concentration of puromycin was determined by fitting the x values into Eq 1, ln100/100−x=kobst (1) where x is the product AcPhe-puromycin, expressed as the percentage of complex C added in the reaction mixture, and t is the time of the reaction.
A representative time plot obtained at 400 μM puromycin, in the absence of inhibitor, is illustrated in Fig 3A (upper line) and, as expected, is characterized by linearity. However, when the reaction proceeded in the presence of a CAM dimer, e.g. compound 5, the time plots were characterized by two unique features that distinguish them from a typical kinetic behavior. […] Second, the slopes of both progress curves varied as a function of the inhibitor concentration (Fig 3A, four lower curves). […] These kinetic results are consistent with compound 5 operating through an induced fit mechanism (Fig 3C), in which the inhibitor first binds rapidly to complex C to form the encounter complex CI, which then undergoes a slow conformational change to produce a final, tighter complex C*I. Corroborative evidence for the consistency of this model is provided by the hyperbolic shape of the equilibration plots (k eq versus [I]), in which k eq represents the apparent rate constant for the attainment of equilibrium among C, CI, and C*I (Fig 3B). If one-step mechanism of inhibition was applicable (C + I ⇄ C*I), k eq should be a linear function of [I] [27]. […] Because the isomerization constant k on/k off was calculated to be 3.6, the inhibition process was finally associated with high overall inhibition of peptide-bond formation (Ki* = 0.3 μM; S1 Fig, panel C). In addition, the slow k off rate (0.64 min^-1) provided prolonged residence time for compound 5 at the ribosome, a behavior potentially predicting good efficacy in vivo [28].
The puromycin reaction, i.e. the reaction between complex C and excess puromycin (S), was carried out at 25°C in buffer A [100 mM Tris-HCl pH 7.2, 6 mM (CH3COO)2Mg, 100 mM NH4Cl and 6 mM 2-mercaptoethanol]. Under these conditions, the puromycin reaction obeys C + S ⇄KS CS→kcat C^′ + S pseudo-first-order kinetics and was analyzed as previously described.
In the presence of CAM dimers, biphasic semi-logarithmic time plots were obtained. The slope of the straight line through the origin was seen as the value of the apparent rate constant, k obs(early), at the early phase of the reaction. Similarly, the slope of the second straight line was taken as the apparent rate constant, k obs(late), at the late phase of the puromycin reaction.

Setting [5] is: LB medium, 37°C, OD560, read-out: EC50.

A word on the EC50: it is the concentration needed to bring the measured effect to its halfway point. Regarding `O=C(N[C@H](CO)[C@H](O)c1ccc([N+](=O)[O-])cc1)C(Cl)Cl` [CAM, chloramphenicol], the Kd in [1] (read-out: K D, high affinity site) is 2 µM; in data set [1] (read-out: K D, low affinity site), 200 µM. Moreover, the results for the Ki (in data set [2] (encounter complex CI); in [2] (overall inhibition constant); on ribosome) were 3.1 ± 0.3 µM, 0.88 ± 0.07 µM and ~300 µM, respectively. In [2], the k off is 0.0165 ± 0.00067 s⁻¹. For the same compound, in the data set on P. aeruginosa (GRE5288) (P. aeruginosa versus wild-type E. coli), the “fold higher EC50 value than wild-type E. coli” value is listed as 6 fold. The EC50 in the data set with P. aeruginosa (GRE5288) was found to be 25.6 ± 2.2 µM; in the data set with E. coli (ΔtolC), 2.2 ± 0.1 µM; in the data set with E. coli (A2503C), 24.9 ± 2.5 µM; with E. coli (A2058G) it was 15.9 ± 1.1 µM; in data set [3] it was 115 ± 16.3 µM; in the data set on E. coli (WT), 4.4 ± 0.2 µM. Also, the EC50 in the data set with S. aureus (WT) was found to be 2.9 ± 0.1 µM; with MRSA (GRE2691) it was 12.8 ± 1.5 µM; in the data set with E. faecium (GRE5152), 3.5 ± 0.3 µM; with MRSA (GRE2272), 8.4 ± 0.7 µM. Further, in the data set with Jurkat cells, the “apoptosis, expressed as a percentage of total cells” value was “did not induce any necrosis/apoptosis effect”. The necrosis result with Jurkat cells is “did not induce any necrosis/apoptosis effect”. The “fold more sensitive than wild-type E. coli” value with E. coli (ΔtolC) (E. coli BL21 DE3 (ΔtolC) versus wild-type E. coli) is recorded as “approximately 2 fold”. For the same compound, in the data set on E. coli (WT) (wild-type E. coli, IC50(puro) calculated from Ki* at 2 mM puromycin), the “EC50(cell growth)/IC50(puro)” value is on record as 0.84 ± 0.07.
One may read the melting point as the temperature of the solid-liquid transition. In turn, `O=C(/C=C/c1ccc(/C=C/C(=O)N[C@H](CO)[C@H](O)c2ccc([N+](=O)[O-])cc2)cc1)N[C@H](CO)[C@H](O)c1ccc([N+](=O)[O-])cc1` [Compound 8, N,N^’-Bis((1R,2R)-1,3-dihydroxy-1-(4-nitrophenyl)propan-2-yl)-1,4-phenylene diacryldiamide] came in with a melting point of 144 to 145 °C. Further, the EC50 in the data set on P. aeruginosa (GRE5288) (TSB medium, clinical isolate with MexAB-OprM and MexXY efflux, read-out: EC50) was > 100 µM. Further, the EC50 with E. coli (ΔtolC) was > 200 µM. Also, the EC50 with E. coli (A2503C) is > 200 µM. Besides, the EC50 with E. coli (A2058G) is > 200 µM. Also, the EC50 in [3] was > 200 µM. For the same compound, the EC50 in the data set with E. coli (WT) was > 200 µM. The EC50 in the data set on S. aureus (WT) (setting [5]) was > 200 µM. Besides, the EC50 with MRSA (GRE2691) (setting [5]) is > 200 µM. The EC50 with E. faecium (GRE5152) (TSB medium, 37°C, OD560, read-out: EC50) is > 200 µM. The EC50 in the data set on MRSA (GRE2272) (setting [5]) was > 200 µM. The “activity compared to CAM” value in data set [4] is “no activity”.

The values are drawn from publication PMC4533973, “Synthesis and Evaluation of Chloramphenicol Homodimers: Molecular Target, Antimicrobial Activity, and Toxicity against Human Cells” (PLoS ONE, 2015).
